These results are taken from US10344025B2, “GLS1 inhibitors for treating disease” (Board of Regents, The University of Texas System, priority 2014, dated 2019).

The target of assay [1] is purified recombinant human GAC (GLS1) (Homo sapiens (Human), UniProt O94925). Description: GLS1 Enzymatic Activity Assay (dual-coupled enzymatic assay, resorufin/Amplex UltraRed readout).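 Also: glutamate from GAC coupled via glutamate oxidase and peroxidase to resorufin, read as fluorescence (ex 530, em 590 nm) kinetically or at 20 min, four-parameter logistic IC50 fit.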 The class given is biochemical.
Chain of purified recombinant human GAC (GLS1) (O94925 other isoform, or with tags, fused parts or gaps): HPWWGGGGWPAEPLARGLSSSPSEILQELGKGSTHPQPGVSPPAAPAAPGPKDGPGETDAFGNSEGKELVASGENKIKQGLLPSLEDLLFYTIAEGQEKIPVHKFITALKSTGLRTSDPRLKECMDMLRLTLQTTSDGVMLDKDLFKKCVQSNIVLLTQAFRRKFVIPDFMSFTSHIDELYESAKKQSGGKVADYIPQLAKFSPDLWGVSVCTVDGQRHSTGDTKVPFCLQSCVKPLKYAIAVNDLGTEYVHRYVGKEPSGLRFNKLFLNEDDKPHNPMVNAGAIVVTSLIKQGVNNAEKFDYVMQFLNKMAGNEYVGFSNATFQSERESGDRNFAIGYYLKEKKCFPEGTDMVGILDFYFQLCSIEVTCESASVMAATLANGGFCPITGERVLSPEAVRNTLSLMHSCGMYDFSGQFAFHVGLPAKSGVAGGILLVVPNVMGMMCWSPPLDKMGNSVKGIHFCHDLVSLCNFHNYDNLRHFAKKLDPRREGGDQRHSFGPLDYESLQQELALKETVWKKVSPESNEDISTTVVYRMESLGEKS
Another assay concerns A549 cells. Nature of the assay: Proliferation Assay (A549 viability, Cell Titer Fluor, 72 hours). The class given is cell-based. A digest of the protocol: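 A549 cells seeded at 1000 cells/well, rested 24 h, then exposed to compound in 0.5% DMSO for 72 h at 37 °C. Viability read by Cell Titer Fluor fluorescence; IC50 from four-parameter logistic fit.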

Read-outs that look alike come from different tables or passages of the source.

The term IC50 denotes the concentration that gives 50% inhibition. For orientation: EC50 means the concentration needed to bring the measured effect to its halfway point. Read a high EC50 as lower potency in that assay. `CNC(=O)c1nnc(CCCCc2ccc(NC(=O)Cc3cc(C(F)(F)F)ccn3)nn2)s1` [Example 229, N-methyl-5-(4-(6-(2-(4-(trifluoromethyl)pyridin-2-yl)acetamido)pyridazin-3-yl)butyl)-1,3,4-thiadiazole-2-carboxamide]: in assay [1], the IC50 is less than 100 nM. In the assay with A549 cells (Homo sapiens, A549, 72 h), this compound had an EC50 of less than 100 nM.

As to `CNC(=O)c1cn(CCCCc2ccc(NC(=O)CN3CCN(c4ccc(OC(F)(F)F)cc4)CC3)nn2)nn1` [Example 232, N-methyl-1-(4-(6-(2-(4-(4-(trifluoromethoxy)phenyl)piperazin-1-yl)acetamido)pyridazin-3-yl)butyl)-1H-1,2,3-triazole-4-carboxamide], in assay [1], the IC50 was less than 100 nM. The EC50 in the assay with A549 cells (Homo sapiens, A549, 72 h) was less than 100 nM.

In the case of `O=C(NCc1ccccn1)c1cn(CC(F)CCc2nnc(C(=O)NCc3cc(C(F)(F)F)ccn3)s2)nn1` (centres unmarked) [Example 234, 5-(3-fluoro-4-(4-((pyridin-2-ylmethyl)carbamoyl)-1H-1,2,3-triazol-1-yl)butyl)-N-((4-(trifluoromethyl)pyridin-2-yl)methyl)-1,3,4-thiadiazole-2-carboxamide], the IC50 in assay [1] is less than 100 nM. Further, the EC50 in the assay with A549 cells (Homo sapiens, A549, 72 h) fell in the range of 100 to 500 nM.

Consider `O=C(NCc1cc(C(F)(F)F)ccn1)c1cn(CC(F)CCc2nnc(C(=O)NCc3ccccn3)s2)nn1` (centres unmarked) [Example 235, 5-(3-fluoro-4-(4-(((4-(trifluoromethyl)pyridin-2-yl)methyl)carbamoyl)-1H-1,2,3-triazol-1-yl)butyl)-N-(pyridin-2-ylmethyl)-1,3,4-thiadiazole-2-carboxamide], for which the IC50 in assay [1] is less than 100 nM. The compound also returned an EC50 in the assay on A549 cells (Homo sapiens, A549, 72 h) of 100 to 500 nM.

Regarding `CC(=O)Nc1ccc(CCC(F)Cn2cc(C(=O)NCc3cc(C(F)(F)F)ccn3)nn2)nn1` (centres unmarked) [Example 236, 1-(4-(6-acetamidopyridazin-3-yl)-2-fluorobutyl)-N-((4-(trifluoromethyl)pyridin-2-yl)methyl)-1H-1,2,3-triazole-4-carboxamide], the IC50 in assay [1] was less than 100 nM. In the assay on A549 cells (Homo sapiens, A549, 72 h), this compound showed an EC50 of less than 100 nM.

In the case of `CNC(=O)c1cn(CCCCc2ccc(NC(=O)Cc3cccc(N(C)C)c3)nn2)nn1` [Example 237, 1-(4-(6-(2-(3-(dimethylamino)phenyl)acetamido)pyridazin-3-yl)butyl)-N-methyl-1H-1,2,3-triazole-4-carboxamide], the IC50 in assay [1] is less than 100 nM. In the assay on A549 cells (Homo sapiens, A549, 72 h), this compound came in with an EC50 of 100 to 500 nM.

As to `O=C(Cc1ccccn1)Nc1nnc(CC[C@H](F)Cn2cc(C(=O)NCc3cc(C(F)(F)F)ccn3)nn2)s1` [Example 238, (S)-1-(2-fluoro-4-(5-(2-(pyridin-2-yl)acetamido)-1,3,4-thiadiazol-2-yl)butyl)-N-((4-(trifluoromethyl)pyridin-2-yl)methyl)-1H-1,2,3-triazole-4-carboxamide], the IC50 in assay [1] is less than 100 nM. In addition, the EC50 with A549 cells (Homo sapiens, A549, 72 h) fell in the range of 100 to 500 nM.

On to `CNC(=O)c1cn(C[C@@H](F)CCc2nnc(NC(=O)Cc3cccc(OC(F)(F)F)c3)s2)nn1` [Example 239, (S)-1-(2-fluoro-4-(5-(2-(3-(trifluoromethoxy)phenyl)acetamido)-1,3,4-thiadiazol-2-yl)butyl)-N-methyl-1H-1,2,3-triazole-4-carboxamide], for which, in assay [1], the IC50 is less than 100 nM. Besides, the EC50 in the assay with A549 cells fell in the range of 100 to 500 nM.

Turning to `CNC(=O)c1cn(C[C@H](F)CCc2nnc(NC(=O)Cc3cccc(OC(F)(F)F)c3)s2)nn1` [Example 240, (R)-1-(2-fluoro-4-(5-(2-(3-(trifluoromethoxy)phenyl)acetamido)-1,3,4-thiadiazol-2-yl)butyl)-N-methyl-1H-1,2,3-triazole-4-carboxamide], the IC50 in assay [1] is less than 100 nM. In addition, the EC50 with A549 cells (Homo sapiens, A549, 72 h) was less than 100 nM.

For `CNC(=O)c1cn(CC(F)CCc2ccc(NC(=O)CN3CCN(c4cccc(OC(F)(F)F)c4)CC3=O)nn2)nn1` (centres unmarked) [Example 241, 1-(2-fluoro-4-(6-(2-(2-oxo-4-(3-(trifluoromethoxy)phenyl)piperazin-1-yl)acetamido)pyridazin-3-yl)butyl)-N-methyl-1H-1,2,3-triazole-4-carboxamide], the IC50 in assay [1] is less than 100 nM. Besides, the concentration for a half-maximal effect (EC50) with A549 cells (Homo sapiens, A549, 72 h) is less than 100 nM.

`CNC(=O)c1cn(CCCCc2ccc(NC(=O)OC3CCCCC3)nn2)nn1` [Example 243, cyclohexyl (6-(4-(4-(methylcarbamoyl)-1H-1,2,3-triazol-1-yl)butyl)pyridazin-3-yl)carbamate]: the IC50 in assay [1] lay within 100 to 500 nM. The same compound yielded an EC50 in the assay on A549 cells (Homo sapiens) of 100 to 500 nM.

Take `CNC(=O)c1cn(CC(F)CCc2ccc(NC(=O)Cc3ccccc3)nn2)nn1` (centres unmarked) [Example 244, 1-(2-fluoro-4-(6-(2-phenylacetamido)pyridazin-3-yl)butyl)-N-methyl-1H-1,2,3-triazole-4-carboxamide]: the IC50 in assay [1] is less than 100 nM. Also, in the assay on A549 cells (Homo sapiens, A549, 72 h), the EC50 is less than 100 nM.

As for `CNC(=O)c1cn(CC(F)CCc2ccc(NC(=O)Cc3cncc(OC4CC(F)(F)C4)c3)nn2)nn1` (centres unmarked) [Example 245, 1-(4-(6-(2-(5-(3,3-difluorocyclobutoxy)pyridin-3-yl)acetamido)pyridazin-3-yl)-2-fluorobutyl)-N-methyl-1H-1,2,3-triazole-4-carboxamide], in assay [1], the IC50 is less than 100 nM. For the same compound, the EC50 in the assay on A549 cells (Homo sapiens, A549, 72 h) is less than 100 nM.

For `O=C(Cc1cc(-c2cccc(OC(F)(F)F)c2)ccn1)Nc1ccc(CCCCn2cc(C(=O)NCCO)nn2)nn1` [Example 246, N-(2-hydroxyethyl)-1-(4-(6-(2-(4-(3-(trifluoromethoxy)phenyl)pyridin-2-yl)acetamido)pyridazin-3-yl)butyl)-1H-1,2,3-triazole-4-carboxamide], the IC50 in assay [1] was less than 100 nM. The EC50 with A549 cells (Homo sapiens, A549, 72 h) is less than 100 nM.

`CNC(=O)c1cn(CCCCc2ccc(NC(=O)CN3CCN(Cc4cccc(OC(F)(F)F)c4)CC3=O)nn2)nn1` [Example 247, N-methyl-1-(4-(6-(2-(2-oxo-4-(3-(trifluoromethoxy)benzyl)piperazin-1-yl)acetamido)pyridazin-3-yl)butyl)-1H-1,2,3-triazole-4-carboxamide]: the IC50 in assay [1] is less than 100 nM. The EC50 in the assay with A549 cells (Homo sapiens, A549, 72 h) was less than 100 nM.

For `CNC(=O)c1cn(CCCCc2ccc(NC(=O)CN3CCN(c4ccccc4OC(F)(F)F)CC3=O)nn2)nn1` [Example 249, N-methyl-1-(4-(6-(2-(2-oxo-4-(2-(trifluoromethoxy)phenyl)piperazin-1-yl)acetamido)pyridazin-3-yl)butyl)-1H-1,2,3-triazole-4-carboxamide], in assay [1], the IC50 is less than 100 nM. In addition, in the assay with A549 cells (Homo sapiens, A549, 72 h), the EC50 is less than 100 nM.

Turning to `O=C(Cc1ccccn1)Nc1nnc(CC[C@@H](F)Cn2cc(C(=O)NCc3cc(C(F)(F)F)ccn3)nn2)s1` [Example 250, (R)-1-(2-fluoro-4-(5-(2-(pyridin-2-yl)acetamido)-1,3,4-thiadiazol-2-yl)butyl)-N-((4-(trifluoromethyl)pyridin-2-yl)methyl)-1H-1,2,3-triazole-4-carboxamide], in assay [1], the IC50 was less than 100 nM. This compound also yielded a half-maximal effective concentration (EC50) in the assay with A549 cells (Homo sapiens) of less than 100 nM.

Take `CNC(=O)c1cn(CC(F)CCc2ccc(NC(=O)Cc3cc(OC4CCC4)ccn3)nn2)nn1` (centres unmarked) [Example 251, 1-(4-(6-(2-(4-cyclobutoxypyridin-2-yl)acetamido)pyridazin-3-yl)-2-fluorobutyl)-N-methyl-1H-1,2,3-triazole-4-carboxamide 2,2,2-trifluoroacetate]: in assay [1], the IC50 is less than 100 nM. This compound came in with an EC50 with A549 cells (Homo sapiens, A549, 72 h) of less than 100 nM.

For `CNC(=O)c1cn(CC(F)CCc2ccc(NC(=O)Cc3cc(C4CCOCC4)ccn3)nn2)nn1` (centres unmarked) [Example 253, 1-(2-fluoro-4-(6-(2-(4-(tetrahydro-2H-pyran-4-yl)pyridin-2-yl)acetamido)pyridazin-3-yl)butyl)-N-methyl-1H-1,2,3-triazole-4-carboxamide], in assay [1], the IC50 was less than 100 nM. For the same compound, the EC50 in the assay on A549 cells (Homo sapiens, A549, 72 h) was less than 100 nM.

Regarding `CNC(=O)c1cn(CCCCc2ccc(NC(=O)Cc3cc(C(C)C(F)(F)F)ccn3)nn2)nn1` (centres unmarked) [Example 258, N-methyl-1-(4-(6-(2-(4-(1,1,1-trifluoropropan-2-yl)pyridin-2-yl)acetamido)pyridazin-3-yl)butyl)-1H-1,2,3-triazole-4-carboxamide], the half-inhibitory concentration (IC50) in assay [1] is less than 100 nM. The EC50 in the assay on A549 cells (Homo sapiens, A549, 72 h) is less than 100 nM.

As to `CNC(=O)c1cn(CC(F)CCc2ccc(NC(=O)Cc3cc(OCC(F)(F)F)ccn3)nn2)nn1` (centres unmarked) [Example 262, 1-(2-Fluoro-4-(6-(2-(4-(2,2,2-trifluoroethoxy)pyridin-2-yl)acetamido)pyridazin-3-yl)butyl)-N-methyl-1H-1,2,3-triazole-4-carboxamide], in assay [1], the half-inhibitory concentration (IC50) is less than 100 nM. This compound also registered an EC50 in the assay on A549 cells (Homo sapiens) of less than 100 nM.

Regarding `CNC(=O)c1cn(CC(F)CCc2ccc(NC(=O)Cc3cc(C(F)(F)F)cc(C4CC4)n3)nn2)nn1` (centres unmarked) [Example 263, 1-(4-(6-(2-(6-cyclopropyl-4-(trifluoromethyl)pyridin-2-yl)acetamido)pyridazin-3-yl)-2-fluorobutyl)-N-methyl-1H-1,2,3-triazole-4-carboxamide], in assay [1], the IC50 was less than 100 nM. The compound also had an EC50 in the assay on A549 cells (Homo sapiens, A549, 72 h) of less than 100 nM.

Regarding `CNC(=O)c1cn(CC(F)CCc2nnc(NC(=O)Cc3cc(C4CCOCC4)ccn3)s2)nn1` (centres unmarked) [Example 265, 1-(2-fluoro-4-(5-(2-(4-(tetrahydro-2H-pyran-4-yl)pyridin-2-yl)acetamido)-1,3,4-thiadiazol-2-yl)butyl)-N-methyl-1H-1,2,3-triazole-4-carboxamide], the IC50 in assay [1] was less than 100 nM. This compound returned an EC50 with A549 cells (Homo sapiens, A549, 72 h) of less than 100 nM.

Take `CNC(=O)c1cn(C[C@H](F)CCc2ccc(NC(=O)Cc3cc(C(F)(F)C4CC4)ccn3)nn2)nn1` [Example 267, (R)-1-(4-(6-(2-(4-(cyclopropyldifluoromethyl)pyridin-2-yl)acetamido)pyridazin-3-yl)-2-fluorobutyl)-N-methyl-1H-1,2,3-triazole-4-carboxamide]: the concentration for half-maximal inhibition (IC50) in assay [1] is less than 100 nM. Also, the EC50 in the assay with A549 cells (Homo sapiens, A549, 72 h) was less than 100 nM.

`CNC(=O)c1cn(C[C@H](F)CCc2ccc(NC(=O)Cc3cc(OC4CC(OCC(F)(F)F)C4)ccn3)nn2)nn1` (stereo partly drawn) [Example 269, (R)-1-(2-fluoro-4-(6-(2-(4-(3-(2,2,2-trifluoroethoxy)cyclobutoxy)pyridin-2-yl)acetamido)pyridazin-3-yl)butyl)-N-methyl-1H-1,2,3-triazole-4-carboxamide]: the IC50 in assay [1] was less than 100 nM. This compound also returned an EC50 with A549 cells (Homo sapiens, A549, 72 h) of less than 100 nM.
